Measurements from US20110053770A1, “SUBSTITUTED AMINOTHIAZOLES AND THEIR USE AS FUNGICIDES” (BAYER CROPSCIENCE AG, priority 2009, published 2011).
Like-named read-outs stand apart in the source and are kept apart here. Marks after values point to notes of the source that are not given here.

Assay: logP by HPLC on reversed-phase columns (C 18), EEC directive 79/831 Annex V.A8
Assay type: physicochemical
Conditions: for log P (**): pH 2.7, 0.1% aqueous formic acid and acetonitrile; for chromatographic logP: reversed-phase HPLC column (C 18)
Protocol: Calibration was carried out using unbranched alkan-2-ones (having from 3 to 16 carbon atoms) with known logP values (the logP values were determined by the retention times using linear interpolation between two successive alkanones).

[1] = LC-MS, neutral range, pH 7.8, 0.001 molar aqueous ammonium bicarbonate and acetonitrile
[2] = acidic range, pH 2.3, 0.1% aqueous phosphoric acid and acetonitrile

Row | log P (***) [1] | log P (*) [2] | log P (**) (LC-MS, acidic range) | chromatographic logP (LC-MS, neutral range, pH 7.8, 0.001 molar aqueous ammonium bicarbonate and acetonitrile, read-out: log P (***)) | chromatographic logP (acidic range, pH 2.3, 0.1% aqueous phosphoric acid and acetonitrile, read-out: log P (*)) | Structure (SMILES)
1 | 3.36 | 1.58 | – | – | – | Clc1cccc(Cc2csc(N=C3CCCCN3)n2)c1 [compound 70, 4-(3-chlorobenzyl)-N-[(2E/Z)-piperidin-2-ylidene]-1,3-thiazole-2-amine]
2 | 3.25 | – | 1.58 | – | – | Brc1ccccc1-c1csc(N=C2CCCCN2)n1 [compound 48, 4-(2-bromophenyl)-N-[(2E/Z)-piperidin-2-ylidene]-1,3-thiazole-2-amine]
3 | 4.32 | 4.36 | 4.36 | – | – | CC(=O)N1CCCCC1=Nc1nc(-c2ccccc2Oc2ccc(F)cc2F)cs1 [compound 16, 1-[(2E/Z)-2-({4-[2-(2,4-difluorophenoxy)phenyl]-1,3-thiazol-2-yl}imino)piperidin-1-yl]ethanone]
4 | 3.95 | 2.12 | – | – | – | Fc1ccc(Oc2ccc(-c3csc(N=C4CCCCN4)n3)cc2)c(F)c1 [compound 9, 4-[4-(2,4-difluorophenoxy)phenyl]-N-[(2E/Z)-piperidin-2-ylidene]-1,3-thiazole-2-amine]
5 | – | 1.32* | – | – | – | Cc1cccc(-c2csc(N=C3CCCCN3)n2)c1 [compound 60, 4-(3-methylphenyl)-N-[(2E/Z)-piperidin-2-ylidene]-1,3-thiazole-2-amine]
6 | 4.28 | – | 2.07 | – | – | c1ccc(Cc2ccc(-c3csc(N=C4CCCCN4)n3)cc2)cc1 [compound 94, 4-(4-benzylphenyl)-N-[(2E/Z)-piperidin-2-ylidene]-1,3-thiazole-2-amine]
7 | – | – | 0.27** | – | – | c1ccc(-c2csc(N=C3CCCCN3)n2)nc1 [compound 61, N-[(2E/Z)-piperidin-2-ylidene]-4-(pyridin-2-yl)-1,3-thiazole-2-amine]
8 | 5.96 | 2.92 | 2.92 | – | – | CC(C)(C)c1cc(Oc2ccccc2-c2csc(N=C3CCCCN3)n2)ccc1Cl [compound 12, 4-[2-(3-tert-butyl-4-chlorophenoxy)phenyl]-N-[(2E/Z)-piperidin-2-ylidene]-1,3-thiazole-2-amine]
9 | – | – | 1.8** | – | – | Clc1ccc(-c2csc(N=C3CCCCN3)n2)c(Cl)c1 [compound 4, 4-(2,4-dichlorophenyl)-N-[(2E/Z)-piperidin-2-ylidene]-1,3-thiazole-2-amine]
10 | 4.39 | 4.41 | 4.41 | – | – | CC(=O)N1CCCCC1=Nc1nc(-c2ccccc2Oc2ccccc2)cs1 [compound 17, 1-[(2E/Z)-2-{[4-(2-phenoxyphenyl)-1,3-thiazol-2-yl]imino}piperidin-1-yl]ethanone]
11 | – | 2.14* | – | – | – | Brc1ccc(Oc2ccccc2-c2csc(N=C3CCCCN3)n2)cc1 [compound 84, 4-[2-(4-bromophenoxy)phenyl]-N-[(2E/Z)-piperidin-2-ylidene]-1,3-thiazole-2-amine]
12 | 3.54 | 1.92 | 2.05 | – | – | c1ccc(Oc2ccccc2-c2csc(N=C3CCCN3)n2)cc1 [compound 98, 4-(2-phenoxyphenyl)-N-[(2E/Z)-pyrrolidin-2-ylidene]-1,3-thiazole-2-amine]
13 | 3.91 | 2.07 | 2.09 | – | – | c1ccc(Oc2ccccc2-c2csc(N=C3CCCCN3)n2)cc1 [compound 10, 4-(2-phenoxyphenyl)-N-[(2E/Z)-piperidin-2-ylidene]-1,3-thiazole-2-amine]
14 | 3.22 | 1.57 | 1.57 | – | – | Fc1cc(F)cc(-c2csc(N=C3CCCCN3)n2)c1 [compound 29, 4-(3,5-difluorophenyl)-N-[(2E/Z)-piperidin-2-ylidene]-1,3-thiazole-2-amine]
15 | 3.12 | 1.64 | 1.64 | – | – | Fc1ccc(-c2csc(N=C3CCCCN3)n2)cc1F [compound 18, 4-(3,4-difluorophenyl)-N-[(2E/Z)-piperidin-2-ylidene]-1,3-thiazole-2-amine]
16 | 3.78 | 1.84 | 1.84 | – | – | Fc1c(-c2csc(N=C3CCCCN3)n2)cccc1C(F)(F)F [compound 26, 4-[2-fluoro-3-(trifluoromethyl)phenyl]-N-[(2E/Z)-piperidin-2-ylidene]-1,3-thiazole-2-amine]
17 | – | 0.71* | – | – | – | Clc1ncccc1-c1csc(N=C2CCCCN2)n1 [compound 53, 4-(2-chloropyridin-3-yl)-N-[(2E/Z)-piperidin-2-ylidene]-1,3-thiazole-2-amine]
18 | 4.84 | 2.42 | 2.42 | – | – | Clc1ccc(Oc2ccccc2-c2csc(N=C3CCCCN3)n2)c(Cl)c1 [compound 11, 4-[2-(2,4-dichlorophenoxy)phenyl]N-[(2E/Z)-piperidin-2-ylidene]-1,3-thiazole-2-amine]
19 | – | – | – | 3.93 | 1.68 | Clc1ccc(-c2csc(N=C3CCCCN3)n2)cc1Cl [compound 52, 4-(3,4-dichlorophenyl)-N-[(2E/Z)-piperidin-2-ylidene]-1,3-thiazole-2-amine]
20 | – | – | 1.75** | – | – | FC(F)(F)c1cccc(-c2csc(N=C3CCCCN3)n2)c1 [compound 105, N-[(2E/Z)-piperidin-2-ylidene]-4-[3-(trifluoromethyl)phenyl]-1,3-thiazole-2-amine]
21 | 3.27 | 1.51 | – | – | – | CC(c1ccccc1)c1csc(N=C2CCCCN2)n1 (stereo not drawn) [compound 73, 4-(1-phenylethyl)-N-[(2E/Z)-piperidin-2-ylidene]-1,3-thiazole-2-amine]
22 | 4.18 | 1.83 | – | – | – | Fc1ccc(Oc2ccccc2-c2csc(N=C3CCCCN3)n2)cc1F [compound 78, 4-[2-(3,4-difluorophenoxy)phenyl]-N-[(2E/Z)-piperidin-2-ylidene]-1,3-thiazole-2-amine]
23 | 3.55 | – | 1.97 | – | – | FC(F)(F)c1cccc(-c2csc(N=C3CCCCN3)n2)c1 [compound 45, N-[(2E/Z)-piperidin-2-ylidene]-4-[3-(trifluoromethyl)phenyl]-1,3-thiazole-2-amine]
24 | 3.16 | 1.58 | 1.58 | – | – | Fc1ccc(F)c(-c2csc(N=C3CCCCN3)n2)c1 [compound 19, 4-(2,5-difluorophenyl)-N-[(2E/Z)-piperidin-2-ylidene]-1,3-thiazole-2-amine]
25 | 2.38 | 0.94 | – | – | – | Clc1ccc(-c2csc(N=C3CCCCN3)n2)cn1 [compound 63, 4-(6-chloropyridin-3-yl)-N-[(2E/Z)-piperidin-2-ylidene]-1,3-thiazole-2-amine]
